We go through three compounds from patent publication US10206399B2, “Herbicidal composition comprising uracil compound as active ingredient” (Dongbu Farm Hannong Co., Ltd., priority 2012, dated 2019).

The subject of data set [1] is corn.
Data set [2] concerns Aeschynomene indica. Kind of data set: Dry field farming herbicidal composition test, plant mortality. The class given is in vivo.
Text: (§1) X is % damage by uracil compound (a) of formula 1 at the rate of application of p kg/ha; Y is % damage by conventional herbicidal compound (b) at the rate of application of q kg/ha; and E is the expected damage caused by compounds (a) and (b) at a rate of application of p and q kg/ha.
(§2) The expected activity for a given combination of two herbicides can be calculated using equation 1 above.
The subject of data set [3] is Abutilon theophrasti. The description is as above. Type of data set: in vivo.
Text: as §1, §2
The test system of data set [4] is Echinochloa crus. Described as above. Type of data set: in vivo.
Text: as §1, §2
Data set [5] deals with Digitaria sanguinalis. Described as above. The class given is in vivo.
Text: as §1, §2
The mark [6] stands for this setting: Aeschynomene indica, read-out: Aeschynomene indica mortality, measured value.
The mark [7] stands for this setting: Abutilon theophrasti, read-out: Abutilon theophrasti mortality, measured value.
The mark [8] stands for this setting: Echinochloa, read-out: Echinochloa crus mortality, measured value.
Setting [9] is: Digitaria sanguinalis, read-out: Digitaria sanguinalis mortality, measured value.

Where two headings read alike, the source gives them in different places.

As for `CS(=O)(=O)c1ccc(C(=O)C2C(=O)CCCC2=O)c([N+](=O)[O-])c1` [Mesotrione], the “Corn mortality (measured value)” value is given as 0 in data set [1] (15 g/ha), 0 in data set [1] (30 g/ha) and 1 in data set [1] (60 g/ha). Also, the “Corn mortality, measured value” amounted to 0 in data set [1] (15 g/ha), 0 in data set [1] (30 g/ha) and 1 in data set [1] (60 g/ha). The “Aeschynomene indica mortality, measured value” in data set [2] (15 g/ha) stood at 11; in data set [2] (30 g/ha), 27; in data set [2] (60 g/ha) it was 54. The pest or weed control at 15 g/ha came out at 11% in data set [2] (setting [6]), 15% in data set [3] (setting [7]), 0% in data set [4] (setting [8]) and 0% in data set [5] (setting [9]). The pest or weed control at 30 g/ha was 27% in data set [2] (setting [6]), 29% in data set [3] (setting [7]), 5% in data set [4] (setting [8]) and 5% in data set [5] (setting [9]). The pest or weed control at 60 g/ha in data set [2] (setting [6]) was 54%; in data set [3] (setting [7]) it was 58%; in data set [4] (setting [8]), 15%; in data set [5] (setting [9]) it was 10%. In addition, the results for the “Abutilon theophrasti mortality, measured value” in data set [3] (15 g/ha), in data set [3] (30 g/ha) and in data set [3] (60 g/ha) were 15, 29 and 58, respectively. Moreover, the “Echinochloa crus mortality, measured value” in data set [4] (15 g/ha) is recorded as 0; in data set [4] (30 g/ha) it was 5; in data set [4] (60 g/ha) it was 15. The “Digitaria sanguinalis mortality, measured value” in data set [5] (15 g/ha) turned out to be 0; in data set [5] (30 g/ha) it was 5; in data set [5] (60 g/ha), 10.

In the case of `COc1cc(OC)nc(NC(=O)NS(=O)(=O)c2ncccc2C(=O)N(C)C)n1` [Nicosulfuron], the “Corn mortality, measured value” in data set [1] (5 g/ha), in data set [1] (10 g/ha) and in data set [1] (20 g/ha) was 0 in each case. The pest or weed control at 5 g/ha in data set [2] (setting [6]) is 11%; in data set [3] (setting [7]) it was 8%; in data set [4] (setting [8]), 10%; in data set [5] (setting [9]) it was 7%. Besides, the pest or weed control at 10 g/ha was 30% in data set [2] (setting [6]), 26% in data set [3] (setting [7]), 24% in data set [4] (setting [8]) and 24% in data set [5] (setting [9]). The pest or weed control at 20 g/ha is 65% in data set [2] (setting [6]), 62% in data set [3] (setting [7]), 50% in data set [4] (setting [8]) and 50% in data set [5] (setting [9]).

Take `Cc1nn(-c2cc(NS(C)(=O)=O)c(Cl)cc2Cl)c(=O)n1C(F)F` [Sulfentrazone]: the “Corn mortality, measured value” in data set [1] (75 g/ha) stood at 0; in data set [1] (150 g/ha), 0; in data set [1] (300 g/ha), 1. For the same compound, the pest or weed control at 75 g/ha in data set [2] (setting [6]) is 7%; in data set [3] (setting [7]) it was 12%; in data set [4] (setting [8]) it was 0%; in data set [5] (setting [9]) it was 0%. Besides, the pest or weed control at 150 g/ha in data set [2] (setting [6]) came to 25%; in data set [3] (setting [7]), 25%; in data set [4] (setting [8]) it was 5%; in data set [5] (setting [9]) it was 10%. In addition, the pest or weed control at 300 g/ha was found to be 53% in data set [2] (setting [6]), 56% in data set [3] (setting [7]), 20% in data set [4] (setting [8]) and 28% in data set [5] (setting [9]).
